Assay [1] deals with p21/Cdk2 complex. Nature of the assay: Cdk2 immunoprecipitation, p21/Cdk2 and cyclin E/Cdk2 complexes in BxPC-3 cells. It counts as cell-based, human. The text has this:
Cell extracts were subjected to immunoprecipitation using antibodies against Cdk2 and protein A beads. Immunoprecipitates were separated on a 15% SDSPAGE gel, and membrane blots probed with p21 antibodies (1:100), and developed using a chemiluminescence Western blotting detection system. Blots were reprobed with Cdk2 antibody (1:200).

The test system of assay [2] is SCC-1 cells. Description: Growth of SCC-1 cells transfected with p16 siRNA or negative control siRNA. In kind it is cell-based, human. Particulars: 10^-6 M OGF; for reduction in growth: negative control siRNA-transfected SCC-1 cells. As to the method:
The p16-targeted siRNAs (antisense:5′ […]-3′; sense (SEQ ID NO:5): 5′ […]-3′(SEQ ID NO:6) were obtained as ready-annealed, purified duplex probes (Invitrogen, Carlsbad, Calif.). For transfection, 2×10^5 cells per well were seeded in 6-well plates containing 1 ml of serum-free media without antibiotics. In each well, 20 nM of p16-siRNA or control siRNA solutions in serum-free media were added. Cells were incubated for 4 h at 37° C. prior to the addition of OGF. Cultures were incubated for additional 20 h, and then 1 ml fresh complete media either lacking or containing OGF was added. At the indicated time points, cells were collected for growth curves or Western blotting. Three or more independent experiments were conducted. The control siRNAs were purchased from Ambion.

In assay [3] the test system is p16. Nature of the assay: Western blot of p16 in SCC-4 cells. In kind it is cell-based, human. To be noted: SCC-4 cells, 3 h. As to the method: (§1) The SCC-1 (UM-SCC-1) cell line was obtained from the University of Michigan Cancer Research Laboratory, and CAL-27 and SCC-4 cells were obtained from the American Type Culture Collection (Manassas, Va.). SCC-1 and CAL-27 cells were cultured in DMEM media, whereas SCC-4 cells were grown in 1:1 Hams F-12 DMEM media. All media was supplemented with 10% fetal bovine serum (HyClone, Logan, Utah), 1.2% sodium bicarbonate, and 5000 units/ml penicillin, 5 μg/ml streptomycin and 10 μg/ml neomycin. OGF was purchased from Sigma-Aldrich (St. Louis, Mo.), dissolved in sterile water, and used at a final concentration of 10^−6 M.
(§2) Synchronized cells (˜2×10^6) from each treatment were solubilized in 200 μl RIPA buffer (1×PBS, 10 μM IGEPAL, 1 mg/ml SDS, 5 mg/ml deoxycholic acid), containing protease and phosphatase inhibitors (2 μg/ml aprotinin, 3 mg/ml phenylmethyl sulfonyl fluoride (PMSF), 1 mM sodium orthovanidate, 1 μM okadaic acid). Total protein concentrations were measured using the DC protein assay kit (Bio-Rad Laboratories, Hercules, Calif.). Equal amounts of protein (40 μg) were subjected to 10% SDS-PAGE followed by transfer of proteins onto polyvinylidene difluoride (Millipore, Billerica, Mass.) using standard protocols. […]
On the technique in general: In western blotting, separated proteins are transferred to a membrane and probed.

The test system of assay [4] is BxPC-3 cells. Description: Growth of BxPC-3 cells transfected with p21 siRNA or negative control siRNA. To be noted: for reduction in growth: negative control siRNA-transfected BxPC-3 cells. In kind it is cell-based, human. The procedure: The p21-targeted siRNAs were obtained from Santa Cruz Biotechnology, and negative control siRNAs were purchased from Ambion (Ambion, Inc., Austin, Tex.). For transfection, 2×10^5 cells per well were seeded in 6-well plates containing 1 ml of media without antibiotics. For each well, 1 μl of siRNA stock (20 μM) was mixed with 175 μl of serum-free media. Two μl of Oligofectamine reagent (Invitrogen, Carlsbad, Calif.) was added to prewashed cells in each well, making the final concentration for siRNA approximately 20 nM. Cells were incubated for 4 hours at 37° C. prior to the addition of OGF. Eighteen hours later, 1 ml fresh complete media with or without OGF was added to the cultures; media and OGF were replaced daily. At the indicated time points, cells were collected for growth curves or Western blotting.

Assay [5] deals with SCC-1 cells. Description: Growth curves of SCC-1 cells (viable cell counts, hemacytometer). In kind it is cell-based, human. Particulars: 10^-6 M OGF. As to the method:
as §1
Cell growth and flow cytometry. For growth curves, cells were seeded in 6-well plates at an initial density of ˜2×10^5 cells/well. Fresh media and OGF were added 24 h after initial seeding, and media and OGF were replaced daily. At appropriate times, the cells were washed with PBS, trypsinized, and viable cell numbers were counted by trypan blue exclusion using a hemacytometer.

For assay [6], the system named is p16. Nature of the assay: Western blot of p16 in CAL-27 cells. It counts as cell-based, human. Particulars: synchronized CAL-27 cells, 9 h. As to the method: as §1, §2
The test system of assay [7] is Normal Human Neo-Epidermal Keratinocyte cells (NHEK). Description: Growth of NHEK cells. In kind it is cell-based. To be noted: 10^-6 M OGF. As to the method: OGFr is required for OGF action on growth. Normal Human Neo-Epidermal Keratinocyte cells (NHEK) were transfected with OGFr siRNAs or control siRNAs for 72 h in the presence of 10^−6 M OGF, 10^−6 M NTX, or sterile water. Cells were harvested at 72 h and counted with a hemacytometer. Data represent means±SE for 2 independent experiments. Cell numbers differed from wt cells or cells transfected with the negative control siRNA and treated with sterile water at p<0.05 (*), p<0.01 (**), or […]. […] At 72 hr, OGF-treated cultures had 20% fewer cells and at 96 hr, OGF-treated cultures had 32% fewer cells than sterile-water treated control cultures.

Entries after “also recorded” stand apart in the source; their conditions may differ.

In the case of [Met^5]-enkephalin [OGF], the “levels of the p21/Cdk2 complex” value in assay [1] (3, 6, 9, 12, 15, 18, and 21 hours, significant (p<0.05) at 15 hours) was “elevated at all time points; also recorded: increase at 9, 12, 15, 18, and 21 hours”. The “level of the cyclin E/Cdk2 complex” value in assay [1] (after treatment with OGF) is reported as “no change”. In addition, the “Cell numbers vs control levels” value in assay [2] (FIG. 4 growth curves, p<0.05) is on record as “significantly reduced”. For the same substance, the reduction in growth in assay [2] (72 h) is 24%; in assay [2] (96 h) it was 40%; in assay [4] (10^-6 M OGF, 48 hours), 17.8%; in assay [4] (10^-6 M OGF, 72 hours) it was 28.6%; in assay [4] (10^-6 M OGF, 96 hours), 35.8%; in assay [4] (10^-6 M OGF, 120 hours), 33.0%. For the same substance, in assay [3], the “p16 expression relative to synchronized control cells” value is reported as “induced p16 expression”. In addition, the “effect on cell growth of cells transfected with p21 siRNA” value in assay [4] (BxPC-3 cells, 10^-6 M OGF) is recorded as “no effect”. Also, the “Cell numbers vs transfected cells receiving sterile water” value in assay [4] (BxPC-3 cultures transfected with negative control siRNA, 10^-6 M OGF (FIG. 8)) is reported as “significantly reduced”. In addition, the “Cell number compared to controls” value is 87.5% in assay [5] (72 h) and 59.0% in assay [5] (96 h). Also, the mean doubling time entry in assay [5] (linear regression of growth data) was “approximately 41.3 h”. The “p16 expression relative to controls” value in assay [6] is reported as “increased p16 expression”. Also, the “fewer cells than control cultures” value was determined as 20% in assay [7] (72 hr) and 32% in assay [7] (96 hr). The substance also had a doubling time in assay [7] (growth curve data) of 57.1 h.

The record behind these values is patent publication US7807368B2, “Cyclin-dependent kinase inhibitors as targets for opiod growth factor treatment” (priority 2006, dated 2010).
